Patent publication US20180243363A1, “NEUROKININ 1 RECEPTOR AGONIST MEDIATED PROTECTION OF THE EYE” (WAYNE STATE UNIVERSITY, priority 2016, published 2018)
Where a SMILES comes first, the peptide text is derived from it. [ ]: non-standard residue; d: D form. NMeL = CN[C@@H](CC(C)C)C(=O)O; Ava = NCCCCC(=O)O

How the values were obtained:
NK1R [1] = target: T1, NK1R (Mus musculus, UniProt P30548); assay: Tear film (basal tear volume) after systemic NK1R antagonist administration; format: in vivo; parameters: from tissue; host or cells: living C57Bl/6 mice (in vivo; basal tear volume); conditions: systemic treatment, C57Bl/6 mice
Protocol: FIG. 14. Alteration in Tear Film after NK1R antagonist administration.
(§1) Phenol red thread tear test. To measure the tear levels in the eyes of unmanipulated B6 and NK1R^−/− mice, pH indicator phenol red treated cotton threads were obtained from Zone-Quick (ZQ-1010, Showa Yakuhin Kako, Japan). The mice were restrained by holding the lose skin at the base of the neck without touching the facial skin or whiskers. The eyes were tested for tear level by placing the tip of the cotton thread on the bulbar conjunctiva of the lateral canthus for 30 seconds. A picture of the threads was taken and tear absorption was measured using a 10 cm scale.

NK1R [2] = target: T1, NK1R; assay: Phenol red thread tear volume after ocular HSV-1 infection, GR73632 I.P. treatment; format: in vivo, mice; parameters: from tissue; host or cells: living mice (in vivo; eye / tear read-out after systemic dosing); conditions: GR73632 I.P. treated vs control treated group
Protocol: FIGS. 12A, 12B. Increased tear volume at D7 and D10 post ocular HSV-1 infection (POI) in GR73632 I.P treated eyes compared to the control treated group. Phenol Red thread (yellow color) images showing the thread wetness (red color) measured in mm.
Corneal HSV-1 infection. To carry out ocular HSV-1 infection, mice were first anesthetized by intra-peritoneal injection of Ketamine (33 mg/Kg bodyweight)+Xylazine (20 mg/Kg bodyweight) in 0.2 ml PBS. The cornea was scarified with trephine (Fine Science Tools, Foster City, Calif.) while twisting three to four times over the corneal surface. 1×10^4 plaque forming units (p.f.u) of HSV-1 virus were then topically applied with a pipette to the eye in 3 μL of 1×PBS followed by gentle massage of the eyelids.
as §1

T1 sequence (P30548 whole entry): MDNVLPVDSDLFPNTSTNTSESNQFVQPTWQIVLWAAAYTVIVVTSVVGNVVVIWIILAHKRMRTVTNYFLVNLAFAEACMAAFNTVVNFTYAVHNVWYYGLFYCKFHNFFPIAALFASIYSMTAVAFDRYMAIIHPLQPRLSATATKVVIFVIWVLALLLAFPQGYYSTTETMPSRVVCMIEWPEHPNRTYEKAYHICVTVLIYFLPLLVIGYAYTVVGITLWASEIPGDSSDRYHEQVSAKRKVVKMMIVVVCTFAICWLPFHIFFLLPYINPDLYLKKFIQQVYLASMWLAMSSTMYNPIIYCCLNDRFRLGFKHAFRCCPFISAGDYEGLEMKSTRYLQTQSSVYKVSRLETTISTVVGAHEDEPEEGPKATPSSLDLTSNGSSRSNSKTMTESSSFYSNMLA

Row | Compound | volume of basal tears (NK1R [1]) | tear volume (phenol red thread wetness) (NK1R [2]; D7 post ocular HSV-1 infection, p<0.05) | tear volume (phenol red thread wetness) (NK1R [2]; D10 post ocular HSV-1 infection, p<0.01)
1 | Spantide I | reduces the volume of basal tears | – | –
2 | CSCC[C@H](NC(=O)[C@H](CC(C)C)N(C)C(=O)[C@@H]1CCCN1C(=O)[C@H](Cc1ccccc1)NC(=O)[C@H](Cc1ccccc1)NC(=O)CCCCN)C(N)=O [GR73632] (H-[Ava]FFP[NMeL]M-NH2) | – | Significant increase in tear volume | Significant increase in tear volume
